Measurements published in patent US11826432B2, “Linkers, conjugates and applications thereof” (priority 2021, dated 2023).

Key:
[1] = system: HER2 high-expressing cancer cells NCI-N87; experiment: Cytotoxicity assay (CellTiter-Glo cell viability), NCI-N87; type: cell-based; settings: NCI-N87, 120 h treatment
Procedure: (§1) Cytotoxicity assays were performed using HER2 high-expressing cancer cells SK-BR-3 (FIG. 1) and NCI-N87 (FIG. 2), HER2 low-expressing cancer cells CFPAC-1 (FIG. 3) and NCI-H2110 (FIG. 4), as well as a HER2 negative cell line MDA-MB-468 (FIG. 5) to analyze the effect of conjugates on tumor cell proliferation. […] In brief, 3000 to 5000 cells were plated in 96-well plates, and cells were able to attach overnight. Cells were treated with indicated drugs with various concentrations for 120 h. Cell viabilities were examined by CellTiter-Glo® Luminescent Cell Viability Assay, and percentage of cell viability was calculated.

[2] = system: HER2 high-expressing cancer cells SK-BR-3; experiment: Cytotoxicity assay (CellTiter-Glo cell viability), SK-BR-3; type: cell-based; settings: SK-BR-3, 120 h treatment
Procedure: as §1

## CC[C@@]1(O)C(=O)OCc2c1cc1n(c2=O)Cc2c-1nc1cc(F)c(C)c3c1c2[C@@H](NC(=O)CO)CC3 [compound 10]
[1]
  IC50: 4.68 nM
[2]
  IC50: 1.47 nM
